Test results published in PubChem BioAssay AID1419 (Emory University Molecular Libraries Screening Center, 2008).
Calls of active or inactive are those of the source. The rule behind the calls is not given here.

Experiment: EBV protein-peptide binding inhibitors, dose response, biochemical, fluorescence polarization (AID 1419)
Settings: cell-free protein-peptide binding, 2 h; for fold change: measured here: P channel fold over control, at 54 µM

Row | Structure (SMILES) | IC50 | fold change
1 | NC(=O)c1c(NC(=O)Cn2nc(C(=O)O)c3ccccc3c2=O)sc2c1CCCC2 | > 54 µM (inactive) | 1.01
2 | Cc1cc[n+](-c2[nH]c(=O)sc2/C=N/NC([S-])=Nc2ccccc2)cc1C | > 54 µM (inactive) | 1.95
3 | CCC1(CC)NC(=O)N(CC(=O)Nc2sc3c(c2C(N)=O)CCC3)C1=O | > 54 µM (inactive) | 1.23
4 | CCN(CC)c1ccc(/C=C(/C#N)c2nc3ccc(C)cc3[nH]2)c(OC(C)C)c1 | 1.51 µM | 22
5 | COc1ccc(/C=C2\N=C(c3c(-c4ccccc4)noc3C)OC2=O)cc1OC | 15.9 µM | 3.56
6 | COc1cc(/C=C2\SC(=O)N(Cc3ccc(F)cc3)C2=O)cc([N+](=O)[O-])c1O | > 54 µM (inactive) | 0.843
7 | COc1ccc(-c2nc(CS(=O)CC(=O)NCc3cccnc3)c(C)o2)cc1 (stereo not given) | > 54 µM (inactive) | 1.01
8 | CCOC(=O)[C@@]1(C#N)C(c2ccc(Cl)c(Cl)c2)[C@H](C(N)=O)N2C=C(C(C)=O)C=C[C@H]21 (stereo not given in full) | 1.41 µM | 9.48
9 | O=C1NC(=O)C2=Cc3ccc(O)cc3OC2(O)N1 (stereo not given) | < 0.42 µM | 100
10 | O=C(Nc1nnc(Cc2ccccc2)s1)c1cnccn1 | > 54 µM (inactive) | 1.06
11 | CN1CC=C2C(C#N)=C(N)C(C#N)(C#N)[C@H](c3cccc(Cl)c3)C2C1 (stereo not given in full) | 3.17 µM | 4.79
12 | N#Cc1c2nc3ccccc3nc2n2cc(NC(=O)c3ccc(F)cc3)ccc12 | 4.15 µM | 0.583
13 | COc1ccc2c(c1)c1nc3ccccc3nc1n2CC(=O)OC(C)C | 1.21 µM | 6.79
14 | O=C(O)CSc1cc(C(=O)c2ccccc2O)cn2c(=O)c3c4c(sc3nc12)CCCC4 | > 54 µM (inactive) | 1.02
15 | O=[N+]([O-])c1ccccc1/C=C/C=N/n1c(-c2ccc(Cl)cc2)n[nH]c1=S | > 54 µM (inactive) | 0.947
16 | Cn1cc(/C=C2\SC(=O)NC2=S)c2ccccc21 | > 54 µM (inactive) | 2.12
17 | CCCCOc1[nH]c2nc(-c3ccco3)n(Cc3ccco3)c(=N)c2c1C#N | > 54 µM (inactive) | 1.17
18 | Cc1nnc(N2C(=O)C(O)=C(C(=O)c3ccco3)C2c2ccc(F)cc2)s1 (stereo not given) | 10.4 µM | 2.42
19 | O=C(Nc1ccc2nc3ccccc3nc2c1)c1ccccc1 | 15.5 µM | 1.85
20 | COc1ccc(NC(=O)CCl)cn1 | 2.57 µM | 2.89
21 | CC(O)CCc1nc2ccc(C(=O)O)cc2[nH]1 (stereo not given) | > 54 µM (inactive) | 0.983
22 | CN(C)c1ccc(/C=C/C(=O)c2cccc(Br)c2)cc1 | 8.66 µM | 11.4
23 | COc1ccc2ccccc2c1C(O)c1nccn1C (stereo not given) | 2.72 µM | 5.13
24 | COC(=O)c1c(=O)n(O)c2ccc(OC)cc2[n+]1[O-] | 4.69 µM | 2.93
25 | CSC1=NSC2=NC(=O)/C(=C/c3coc4ccccc4c3=O)C(=N)N12 | 1.78 µM | 106
26 | Cc1ccc(C(=O)NN2C(=O)/C(=C/c3cn(C)c4ccccc34)SC2=S)cc1 | 3.42 µM | 6.95
27 | CC(C)c1cc(=O)oc2c3c4c(cc12)CCCN4CCC3 | 1.88 µM | 5.95

Row | Structure (SMILES) | IC50 | fold change
28 | O=c1oc2cc(O)ccc2cc1-c1nc2c(s1)CCc1ccccc1-2 | < 0.42 µM | 37.6
29 | O=C1c2cccc3c(O)ccc(c23)C(=O)N1Cc1ccco1 | < 0.42 µM | 134
30 | CCOC(=O)c1sc2nc3c(SCCC(=O)O)cc(C(=O)c4cc(OC)ccc4O)cn3c(=O)c2c1C | > 54 µM (inactive) | 1.04
31 | COC(=O)[C@@]1(C#N)[C@@H]2C=CC(C(C)=O)=CN2[C@@H](C(N)=O)[C@@H]1c1ccc(F)cc1 | 1.05 µM | 10.2
32 | CCc1nn2c(=O)cc(COc3ccc(/C=C4\C(=N)N5N=C(C)SC5=NC4=O)cc3)nc2s1 | 16.6 µM | 1.14
33 | O=C(c1ccc(Cl)cc1)C1C2C(=O)N(c3ccccc3)C(=O)C2C2CCCN21 (stereo not given) | < 0.42 µM | 8
34 | CC(C)[C@H]1C(=O)N2CCC[C@H]2[C@]2(O)O[C@](NC(=O)[C@@H]3C=C4c5cccc6[nH]cc(c56)C[C@H]4N(C)C3)(C(C)C)C(=O)N12 | 3.64 µM | 5.11
35 | Cc1ccc2cc(C=C(C#N)C#N)c(N3CCCCC3)nc2c1 | 2.98 µM | 24
36 | CCCNC(=O)COC(=O)c1[nH]c(C)c(C(=O)OCC)c1C | > 54 µM (inactive) | 0.937
37 | O=Cc1ccc2noc(-c3ccc(F)cc3)c2c1 | 1.47 µM | 5.46
38 | Cc1cccn2c(=O)c(/C=C3\SC(=S)N(CC(C)C)C3=O)c(NCCCOC(C)C)nc12 | > 54 µM (inactive) | 1.37
39 | CCCCCC(=O)N/N=C/c1ccc(N(C)C)cc1 | > 54 µM (inactive) | 1.05
40 | O=C(N=Nc1c(O)[nH]c2ccccc12)c1cc(-c2ccc(F)cc2)n[nH]1 | > 54 µM (inactive) | 0.81
41 | Cc1ccc([N+](=O)[O-])cc1N=Nc1c(-c2ccc([N+](=O)[O-])cc2)[nH]n(C(N)=S)c1=O | 1.83 µM | 1.04
42 | CCN(CC)c1ccc(/C=C/c2cc(-c3ccccc3)c3ccccc3n2)cc1 | 13.5 µM | 80.7
43 | Nc1c(C(=O)NC2CC2)sc2nc3c(c(-c4ccco4)c12)CC/C3=C/c1ccco1 | 1.32 µM | 3.52
44 | CC(=O)Nc1cccc(C2=CC(c3ccco3)n3ncnc3N2)c1 (stereo not given) | 1.48 µM | 20.3
45 | O=C(N/N=C/c1ccccc1Cl)c1nc2ccc([N+](=O)[O-])cc2c(=O)[nH]1 | > 54 µM (inactive) | 0.977
46 | O=c1cc(C(F)(F)F)c2cc3c4c(c2o1)CCCN4CCC3 | < 0.42 µM | 57.5
47 | Cc1cc(-c2nc3c4c5c(sc4[nH]c(=O)n3n2)CCC5)c(C)o1 | 21.8 µM | 1.2
48 | COc1ccccc1N1C(=O)C2C(C(=O)c3ccccc3)=NN(c3ccccc3)C2C1=O (stereo not given) | 8.66 µM | 8.64
49 | CCOCCCNc1nc2c(C)cccn2c(=O)c1/C=C1\SC(=S)N(CC(C)C)C1=O | > 54 µM (inactive) | 1.58
50 | CCN1/C(=C2\SC(=S)N(Cc3ccccc3)C2=O)Sc2ccccc21 | > 54 µM (inactive) | 2.96
51 | CCOc1ccc(-c2c(C#N)c(N)nc3sc(C(=O)c4ccccc4)c(N)c23)cc1 | > 54 µM (inactive) | 4.62
52 | COc1cc2c(cc1NC(=O)CN1C(=O)NC3(CCc4ccccc43)C1=O)oc1ccccc12 (stereo not given) | > 54 µM (inactive) | 0.93
53 | COc1ccc(CCNc2nc(-c3cccnc3)cs2)cc1OC | > 54 µM (inactive) | 1.04
54 | Cc1ccc(S(=O)(=O)Nc2nc3ccccc3nc2Nc2cccc(S(=O)(=O)N3CCCC3)c2)cc1 | 2.64 µM | 2.44

Row | Structure (SMILES) | IC50 | fold change
55 | N#CC1=C(N)OC2=C(CC/C2=C\c2ccccc2)C1c1ccccc1 (stereo not given) | < 0.42 µM | 6.24
56 | O=c1c(/C=N/Nc2ccccc2)c(Sc2nnnn2-c2ccccc2)nc2ccccn12 | 4.73 µM | 37.5
57 | Cc1ccc(S(=O)(=O)c2cc3c(=O)n4ccccc4nc3n(Cc3ccco3)c2=N)cc1 | > 54 µM (inactive) | 1.74
58 | Cc1cc2nc3c(=O)n(C4CCCCC4)c(=O)[nH]c3nc2cc1N | < 0.42 µM | 132
59 | O=S(=O)(Nc1nc2ccccc2nc1N1CCN(c2ccccn2)CC1)c1ccc(Cl)cc1 | > 54 µM (inactive) | 2.14
60 | CCOC(=O)c1c(Nc2ccccc2N)cc(C)nc1C | > 54 µM (inactive) | 0.997
61 | Cc1ccc(NC(=O)/C(C#N)=C(\N)C(Cl)(Cl)Cl)nc1 | 0.53 µM | 13
62 | COc1ccc(-c2onc3ccc(Br)cc23)cc1 | 0.86 µM | 7.24
63 | O=[N+]([O-])c1cc(/C=N\Nc2nccs2)ccc1O | 1.31 µM | 1.07
64 | Fc1ccccc1/C=N/Nc1ncnc2nc[nH]c12 | > 54 µM (inactive) | 1.17
65 | Cn1c(=O)cc2c3c(c(N4CCCCC4)ccc31)C(=O)c1ccccc1-2 | 4.67 µM | 1.91
66 | O=C(Nc1ccc(Cl)cc1)Nc1nnc(-c2ccncc2)s1 | > 54 µM (inactive) | 1.08
67 | Nc1ccc2nc3c(=O)n(CCc4ccccc4)c(=O)[nH]c3nc2c1 | < 0.42 µM | 94.8
68 | CCC(C)NC(=O)c1ccc(CSCc2cccc(F)c2)o1 (stereo not given) | > 54 µM (inactive) | 1.08
69 | COc1ccc(Cc2nnc(NC(=O)Cc3cccs3)s2)cc1 | > 54 µM (inactive) | 1.04
70 | O=C(NCCCO)Nc1ccc2nc(-c3ccco3)c(-c3ccco3)nc2c1 | 4.06 µM | 5.99
71 | O=C(N/N=C/c1cccc(F)c1)c1cc(-c2ccco2)nc2ccccc12 | 3.61 µM | 1.06
72 | Nc1c(NCCC2=CCCCC2)c(=O)[nH]c(=O)n1Cc1ccccc1 | > 54 µM (inactive) | 1.7
73 | CN1C(=O)N(C)c2ccc(C=O)c3cccc1c23 | 4.91 µM | 2.37
74 | Cc1n[nH]c(C)c1N1C(=O)c2cccc3c(N4CCCCCC4)ccc(c23)C1=O | < 0.42 µM | 88.6
75 | c1ccc(-c2cn3nc4c(nc3n2)CCCC4)cc1 | 4.56 µM | 2.57
76 | N#CC1=C(N)OC2=C(CC/C2=C\c2ccc(F)cc2)C1c1ccc(F)cc1 (stereo not given) | 20 µM | 3.48
77 | CCN1CC=C2C(C#N)=C(N)C(C#N)(C#N)[C@H](c3ccoc3)[C@H]2C1 | 7.47 µM | 3.84
78 | Cc1ccc(-c2cn3nc(-c4ccccc4)c(-c4ccccc4)nc3n2)cc1 | 1.31 µM | 37.6
79 | C/C=C/C=C/[C@H]1Cc2cc(O)cc(O)c2O1 | 13 µM | 2.04
80 | Cc1cc[n+](-c2[nH]c(=O)sc2/C=N/N=C(\[O-])c2ccccc2)cc1C | < 0.42 µM | 16.5
